Reference: ChEMBL document CHEMBL1201862, “PubChem BioAssay data set” (2004)
One block for each molecule: values may come before it. Activity calls are given as the source filed them.

Columns and labels:
[1] = molecular target: T1, Rac GTPase-activating protein 1 (Homo sapiens, UniProt Q9H0H5); test: blockers of MgcRacGAP-driven Rac1 GTP hydrolysis – biochemical, ADP Hunter fluorescence, primary and confirmatory, confirmation (AID 624330); assay type: functional
T1 sequence (Q9H0H5 whole entry): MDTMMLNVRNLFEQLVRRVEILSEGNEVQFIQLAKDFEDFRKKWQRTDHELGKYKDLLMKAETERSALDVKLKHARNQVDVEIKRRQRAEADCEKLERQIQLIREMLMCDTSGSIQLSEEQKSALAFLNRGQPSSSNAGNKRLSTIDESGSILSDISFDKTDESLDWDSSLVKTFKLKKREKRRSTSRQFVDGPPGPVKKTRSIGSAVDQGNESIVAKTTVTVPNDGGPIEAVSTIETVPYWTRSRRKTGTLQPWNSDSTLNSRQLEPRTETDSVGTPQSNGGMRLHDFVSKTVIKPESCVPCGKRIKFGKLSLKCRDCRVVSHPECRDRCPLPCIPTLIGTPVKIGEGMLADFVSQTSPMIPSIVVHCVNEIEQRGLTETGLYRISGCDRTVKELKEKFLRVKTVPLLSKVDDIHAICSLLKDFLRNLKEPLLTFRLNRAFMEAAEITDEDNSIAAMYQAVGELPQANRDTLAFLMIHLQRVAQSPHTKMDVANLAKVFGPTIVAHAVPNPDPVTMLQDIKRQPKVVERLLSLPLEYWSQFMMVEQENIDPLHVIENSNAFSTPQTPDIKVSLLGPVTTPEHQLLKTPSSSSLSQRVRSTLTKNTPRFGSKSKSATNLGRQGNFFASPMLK

[2] = viability loss in HeLa cells – cytotoxicity control for MgcRacGAP inhibitor project, dose response (AID 624300); assay type: functional
[3] = off-target signal loss in HeLa-CEM21 co-culture – HeLa F-luc CTL cells, cherry-picked, counter-screen for HIV-1 Env fusion inhibitor project, dose response (AID 652040); assay type: functional, cell-based;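 note: potency for signal decrease marking cytotoxic or nonspecific inhibition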
[4] = blockers of HIV-1 envelope-mediated cell-cell fusion – cherry-pick, dose response (AID 652057); assay type: functional, cell-based
[5] = HIV-1 AD8 envelope cell-cell fusion blockers – cherry-pick, dose response (AID 652062); assay type: functional, cell-based;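 note: luciferase signal from cell-cell fusion driven by HIV-1 clade B AD8 Env; potency is for inhibitors of fusion seen as a drop in luminescence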
[6] = blockers of HIV-1 ZM109 envelope-driven cell-cell fusion – HeLa effector, CEM target cells, luciferase, cherry-pick, dose response (AID 652058); assay type: functional, cell-based;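 note: luciferase signal from HIV-1 Env mediated cell-cell fusion of effector and target cells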
[7] = molecular target: FAD-linked sulfhydryl oxidase ALR (Homo sapiens, UniProt P55789); test: ALR-catalysed DTT oxidation blockers – biochemical, H2O2 detection, luminescence, cherry-pick, dose response (AID 493248)
[8] = tested on: BJ; test: BJ-TERT-LT-ST fibroblast viability loss – cell-based, RAS-independent, luminescence, dose response (AID 1935); assay type: functional; settings: Homo sapiens;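 note: BJ fibroblasts immortalized with TERT plus LT and ST oncogenes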
[9] = tested on: BJ; test: BJ-TERT fibroblast viability loss – cell-based, RAS-independent, luminescence, dose response (AID 1933); assay type: functional; settings: Homo sapiens
[10] = DRD fibroblast viability loss – cell-based, non-viral oncogenic, luminescence, dose response (AID 1934); assay type: functional; settings: Homo sapiens
[11] = tested on: BJ; test: cells; assay type: functional, cell-based; settings: Homo sapiens
[12] = molecular target: Glyceraldehyde-3-phosphate dehydrogenase (Homo sapiens, UniProt P04406)
Glyceraldehyde-3-phosphate dehydrogenase, sequence (P04406 whole entry): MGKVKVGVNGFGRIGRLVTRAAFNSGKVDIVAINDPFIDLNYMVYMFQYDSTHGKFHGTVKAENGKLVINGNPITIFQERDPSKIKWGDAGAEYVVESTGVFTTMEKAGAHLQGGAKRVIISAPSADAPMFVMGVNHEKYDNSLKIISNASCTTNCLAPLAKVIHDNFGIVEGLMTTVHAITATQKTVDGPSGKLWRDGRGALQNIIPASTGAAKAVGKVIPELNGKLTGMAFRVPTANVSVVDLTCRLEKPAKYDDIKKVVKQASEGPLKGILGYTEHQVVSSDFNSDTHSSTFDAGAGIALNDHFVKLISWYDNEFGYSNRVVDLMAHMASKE

FAD-linked sulfhydryl oxidase ALR, sequence (P55789 whole entry): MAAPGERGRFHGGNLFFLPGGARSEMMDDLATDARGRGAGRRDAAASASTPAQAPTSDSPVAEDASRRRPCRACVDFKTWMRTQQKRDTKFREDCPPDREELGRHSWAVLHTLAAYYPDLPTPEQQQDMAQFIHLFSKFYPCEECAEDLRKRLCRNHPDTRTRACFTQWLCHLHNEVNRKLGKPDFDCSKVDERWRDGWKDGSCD

Compound: Cc1ccc(S(=O)(=O)c2cc(Nc3ccccc3)ccc2O)cc1
- IC50 [1]: 48.9 µM (active)
- CC50 [2]: 100 µM (active)

Compound: O=S(=O)(c1ccccc1Cl)N1CCCC1c1nc(-c2ccc(Cl)cc2)no1 (stereo unspecified)
- AC50 [3]: 60.9 µM (active)
- AC50 [4]: 1.99 µM (active)
- AC50 [5]: 14.8 µM (active)

Compound: COc1ccc(-c2c[nH]nc2N)c(OC)c1
- AC50 [3]: 20 µM (active)
- AC50 [6]: 32.5 µM (active)
- AC50 [4]: 3.7 µM (active)
- AC50 [5]: 4.98 µM (active)
- AC50 [7]: 0.411 µM (active)

Compound: COc1cc(OC)cc(C(=O)NNC(=O)C2CCCC2)c1
- EC50 [8]: > 150 µM (not active)
- EC50 [9]: > 150 µM (not active)
- EC50 [10]: > 150 µM (not active)
- EC50 [11]: > 150 µM (not active)

Continued, values first:

- IC50 [12]: > 50 µM (inconclusive)
Compound: O=C1C(Cl)=C(N2CCN(CCO)CC2)C(=O)N1c1ccnc(Cl)c1

- IC50 [12]: > 10 µM (inconclusive)
Compound: O=C(CCC1CCCCC1)Nc1nc[nH]n1
